Patent US20060258631A1, “Methods of using fatty-acid esters of estrogens and serotonin reuptake inhibiting compounds for reducing the body weight of a mammal and compositions containing the same” (Oleoyl-Estrone Development SL, priority 2004, published 2006)
Several values for one entry are separate records, joined by “and”; a condition that tells them apart may be missing. Equal values may be shown once. Entries after “also recorded” stand apart in the source; their conditions may differ.

Experiments:
[1] = Body weight and lipid change of overweight rats treated 10 days by daily gavage; assay type: in vivo; conditions: overweight male Wistar rats, 10-day daily gavage; oleoyl-estrone 10 micromol/kg, dexfenfluramine 3 mg/kg, sibutramine 5 mg/kg
From the text: (§1) Forty-five day-old male Wistar rats were used. The rats were kept in collective cages in a light cycle, temperature, and humidity-controlled environment. They were fed tap water and a self-selected cafeteria diet (containing an excess of tasty, energy-dense foods, as well as standard chow) for 45 additional days. Then they were subjected to a 5-day diet adaptation period, in which they had rat chow as the sole food available. At this point, the rats weighed 350-370 g and had plenty of body fat. Maintaining the availability of rat chow (daily consumption by the group was recorded) and tap water, body weight was recorded daily. The animals were given a daily gavage of either 0.2 mL of sunflower oil or the same vehicle containing oleoyl-estrone.
(§2) Six groups of animals were used: • a) controls, receiving a daily gavage of 0.2 mL of sunflower oil; • b) oleoyl-estrone, receiving the same daily gavage of 0.2 mL of sunflower oil, but containing oleoyl-estrone, to a a daily dose of 10 micromol per kg of body weight; • c) dexfenfluramine: receiving the same daily gavage of 0.2 mL of sunflower oil, and a second gavage of 0.2 mL of dexfenfluramine in water, to a a daily dose of 3 mg per kg of body weight; • d) dexfenfluramine plus oleoyl-estrone: receiving both gavages, 0.2 mL of oil and oleoyl-estrone (to a daily dose of 10 micromol per kg of body weight) and 0.2 mL of water and dexfenfluramine, to a daily dose of 3 mg per kg of body weight; • e) sibutramine: receiving the same daily gavage of 0.2 mL of sunflower oil, and a second gavage of 0.2 mL of sibutramine in water, to a a daily dose of 5 mg per kg of body weight; • f) sibutramine plus oleoyl-estrone: receiving both gavages, 0.2 mL of oil and oleoyl-estrone (to a daily dose of 10 micromol per kg of body weight) and 0.2 mL of water and sibutramine, to a daily dose of 5 mg per kg of body weight.
(§3) The treatment was maintained up to 10 days, when the animals were killed by decapitation, and their blood and carcass were used for analyses. Plasma was separated from the blood. The plasma was preserved frozen until its utilization for the estimation of glucose, cholesterol, triacylglycerol, free fatty acids, and insulin levels using standard methods, as well as for the estimation of alanine- and aspartate-transaminase activities.
The rat corpses, partially exsanguinated were dissected. The stomach and intestines were cleaned of their contents. The remaining carcass was sealed into polyethylene bags, autoclaved and blended to a fine paste. This paste was analysed for lipid content by extraction using trichloromethane/methanol and corrected by its water content. Lipid content in the paste was referred to whole in vivo body weight for comparison.
(§4) Samples of the rat paste were dried and used for the estimation of their caloric content using a bomb calorimeter. The initial values for lipid content were calculated from the corresponding in vivo body weights at the beginning of the experiment and applying to all the animals the mean percentage of lipid content found in the control (vehicle only) group at the end of the experiment. This same procedure was used to determine the overall energy content of the carcasses by using the experimentally found energy content of the rats in the control group. Likewise, the energy content of the pellet diet was also measured and used to estimate the energy intake of the animals.

[2] = Energy balance (carcass energy, food/energy intake, energy expenditure) of overweight rats treated 10 days; assay type: in vivo, male Wistar rats; conditions: for decrease in food consumption / loss of energy from the internal stores / net contribution of internal stores to energy expenditure: overweight male Wistar rats, 10-day daily gavage, same doses; for carcass energy content (ranking among groups): end of 10-day treatment, bomb calorimeter
From the text: as §1, §2, §3, §4
Energy expenditure (Ee) was estimated as the difference between energy intake (Ei) and accrual (Ea), since: Ei=Ee±Ea.

[3] = Plasma composition of rats after 10 days of treatment; assay type: in vivo, male Wistar rats; conditions: after 10-day treatment, compared with other groups
From the text: as §1, with “oleoyl-estrone. […]” for “oleoyl-estrone.”

SMILES	loss of body weight [1]	loss of lipid (body lipid) [1] [%]	decrease in food consumption [2] [%]	loss of energy from the internal stores [2] [kJ]	net contribution of internal stores to energy expenditure [2] [%]	carcass energy content (ranking among groups) [2]	plasma triacylglycerol levels [3]
CCN[C@@H](C)Cc1cccc(C(F)(F)F)c1 [dexfenfluramine]	3% and 2.6%	~16	23	546	~20	–	–
CCCCCCCC/C=C\CCCCCCCC(=O)Oc1ccc2c(c1)CC[C@@H]1[C@@H]2CC[C@]2(C)C(=O)CC[C@@H]12 [oleoyl-estrone, [3(Z)]-3-[(1-oxo-9-octadecenyl)oxy]-estra-1,3,5(10)-trien-17-one]	–	13	32	357	–	smaller	lower; also recorded: decreased
CC(C)CC(N(C)C)C1(c2ccc(Cl)cc2)CCC1 (stereo not shown) [sibutramine]	4% and 3.8%	15	26	403	~20	smaller	–
